Among the data in US9403813B2, “Azetidine amide derivatives as orexin receptor antagonists” (ACTELION PHARMACEUTICALS LTD, priority 2013, dated 2016) are IC50 values, retold here.

pIC50: −log10 of the molar value.

In assay [1] the target is human orexin-1 receptor (Homo sapiens (Human), UniProt O43613). In words: Intracellular calcium measurements (FLIPR), antagonism of orexin-A response. It is filed as cell-based. Particulars: CHO cells expressing human orexin-1 receptor, 3 nM orexin-A, geometric mean if determined several times, read-out: IC50 OX1. The protocol:
(§1) Antagonistic activities on both orexin receptors have been measured for each example compound using the following procedure:
(§2) In Vitro Assay: Intracellular Calcium Measurements:
(§3) Chinese hamster ovary (CHO) cells expressing the human orexin-1 receptor and the human orexin-2 receptor, respectively, are grown in culture medium (Ham F-12 with L-Glutamine) containing 300 μg/mL G418, 100 U/mL penicillin, 100 μg/mL streptomycin and 10% heat inactivated fetal calf serum (FCS). The cells are seeded at 20,000 cells/well into 384-well black clear bottom sterile plates (Greiner). The seeded plates are incubated overnight at 37° C. in 5% CO2. Human orexin-A as an agonist is prepared as 1 mM stock solution in MeOH:water (1:1), diluted in HBSS containing 0.1% bovine serum albumin (BSA), NaHCO3: 0.375 g/L and 20 mM HEPES for use in the assay at a final concentration of 3 nM.
(§4) Antagonists are prepared as 10 mM stock solution in DMSO, then diluted in 384-well plates using DMSO followed by a transfer of the dilutions into in HBSS containing 0.1% bovine serum albumin (BSA), NaHCO3: 0.375 g/L and 20 mM HEPES. On the day of the assay, 50 μL of staining buffer (HBSS containing 1% FCS, 20 mM HEPES, NaHCO3: 0.375 g/L, 5 mM probenecid (Sigma) and 3 μM of the fluorescent calcium indicator fluo-4 AM (1 mM stock solution in DMSO, containing 10% pluronic) is added to each well. The 384-well cell-plates are incubated for 50 min at 37° C. in 5% CO2 followed by equilibration at rt for 30 min before measurement.
(§5) Within the Fluorescent Imaging Plate Reader (FLIPR Tetra, Molecular Devices), antagonists are added to the plate in a volume of 10 μL/well, incubated for 120 min and finally 10 μL/well of agonist is added. Fluorescence is measured for each well at 1 second intervals, and the height of each fluorescence peak is compared to the height of the fluorescence peak induced by 3 nM orexin-A with vehicle in place of antagonist. The IC50 value (the concentration of compound needed to inhibit 50% of the agonistic response) is determined and may be normalized using the obtained IC50 value of an on-plate reference compound. Optimized conditions were achieved by adjustment of pipetting speed and cell splitting regime. The calculated IC50 values may fluctuate depending on the daily cellular assay performance. Fluctuations of this kind are known to those skilled in the art. In the case where IC50 values have been determined several times for the same compound, the geometric mean has been given.

Assay [2] concerns the target human orexin-2 receptor (Homo sapiens (Human), UniProt O43614). The description is as above. The format is cell-based. Conditions: CHO cells expressing human orexin-2 receptor, 3 nM orexin-A, geometric mean if determined several times, read-out: IC50 OX2. As for the experimental part: as §1, §2, §3, §4, §5

human orexin-2 receptor, sequence (O43614 whole entry): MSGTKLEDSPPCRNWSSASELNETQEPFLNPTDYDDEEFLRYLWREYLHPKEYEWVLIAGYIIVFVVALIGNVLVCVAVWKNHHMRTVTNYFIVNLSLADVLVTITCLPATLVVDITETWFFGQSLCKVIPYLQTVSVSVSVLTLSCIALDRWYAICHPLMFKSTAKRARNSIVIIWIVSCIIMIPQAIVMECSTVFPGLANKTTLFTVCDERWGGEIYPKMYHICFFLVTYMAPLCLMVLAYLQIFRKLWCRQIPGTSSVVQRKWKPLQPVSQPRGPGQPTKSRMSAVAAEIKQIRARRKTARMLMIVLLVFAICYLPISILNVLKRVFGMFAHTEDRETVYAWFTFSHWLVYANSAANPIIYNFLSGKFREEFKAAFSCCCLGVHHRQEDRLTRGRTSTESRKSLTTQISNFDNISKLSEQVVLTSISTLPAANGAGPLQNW
human orexin-1 receptor, sequence (O43613 whole entry): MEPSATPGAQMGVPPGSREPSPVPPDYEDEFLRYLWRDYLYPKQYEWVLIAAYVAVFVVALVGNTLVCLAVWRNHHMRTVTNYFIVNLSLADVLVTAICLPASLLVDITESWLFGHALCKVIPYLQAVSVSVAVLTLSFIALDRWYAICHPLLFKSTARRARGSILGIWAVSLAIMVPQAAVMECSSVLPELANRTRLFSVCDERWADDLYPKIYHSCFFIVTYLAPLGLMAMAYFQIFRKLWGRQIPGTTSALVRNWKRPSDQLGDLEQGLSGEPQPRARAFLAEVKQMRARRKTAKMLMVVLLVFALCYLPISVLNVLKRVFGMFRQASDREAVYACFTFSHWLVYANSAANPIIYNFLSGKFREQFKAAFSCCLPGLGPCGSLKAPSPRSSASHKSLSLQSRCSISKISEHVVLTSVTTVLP

Consider `CCOc1ncccc1-c1noc([C@@H]2CCN2C(=O)c2cc(OC)c(C)cc2-n2nccn2)n1` [Example 34, {(S)-2-[3-(2-Ethoxy-pyridin-3-yl)-[1,2,4]oxadiazol-5-yl]-azetidin-1-yl}-(5-methoxy-4-methyl-2-[1,2,3]triazol-2-yl-phenyl)-methanone], for which the pIC50 – broadly, −log10 of the IC50, conventionally taken in molar units – in assay [1] is 6.62; in assay [2], 8.30.

Take `Cc1nc(C(=O)N2CC[C@H]2c2nc(-c3ccccc3OC(F)(F)F)no2)c(-c2ccccc2)s1` [Example 40, (2-Methyl-5-phenyl-thiazol-4-yl)-{(S)-2-[3-(2-trifluoromethoxy-phenyl)-[1,2,4]oxadiazol-5-yl]-azetidin-1-yl}-methanone]: the pIC50 in assay [1] was 6.66; in assay [2], 7.39.

On to `COc1cc(C(=O)N2CC[C@H]2c2noc(-c3ccccc3OC(F)(F)F)n2)c(-n2nccn2)cc1C` [Example 86, (5-Methoxy-4-methyl-2-[1,2,3]triazol-2-yl-phenyl)-{(S)-2-[5-(2-trifluoromethoxy-phenyl)-[1,2,4]oxadiazol-3-yl]-azetidin-1-yl}-methanone], for which the values for the pIC50 in assay [1] and in assay [2] were 6.71 and 8.40, respectively.

`Cc1ccc(C(=O)N2CC[C@H]2c2nc(-c3cccc(Cl)c3C)no2)c(-n2nccn2)c1` [Example 78, {(S)-2-[3-(3-Chloro-2-methyl-phenyl)-[1,2,4]oxadiazol-5-yl]-azetidin-1-yl}-(4-methyl-2-[1,2,3]triazol-2-yl-phenyl)-methanone]: the results for the pIC50 in assay [1] and in assay [2] were 6.19 and 7.66, respectively.

For `Cc1c(Cl)cccc1-c1noc([C@@H]2CCN2C(=O)c2ccccc2-n2nccn2)n1` [Example 68, {(S)-2-[3-(3-Chloro-2-methyl-phenyl)-[1,2,4]oxadiazol-5-yl]-azetidin-1-yl}-(2-[1,2,3]triazol-2-yl-phenyl)-methanone], the pIC50 in assay [1] was 5.96; in assay [2] it was 7.13.

Consider `Cc1cccc(-c2sc(C)nc2C(=O)N2CC[C@H]2c2nc(-c3cccc(Cl)c3C)no2)c1` [Example 56, {(S)-2-[3-(3-Chloro-2-methyl-phenyl)-[1,2,4]oxadiazol-5-yl]-azetidin-1-yl}-(2-methyl-5-m-tolyl-thiazol-4-yl)-methanone], for which the results for the pIC50 in assay [1] and in assay [2] were 6.36 and 6.55, respectively.

Consider `Cc1ccc(-n2nccn2)c(C(=O)N2CC[C@H]2c2nc(-c3cccnc3OC3CCC3)no2)c1` [Example 35, {(S)-2-[3-(2-Cyclobutoxy-pyridin-3-yl)-[1,2,4]oxadiazol-5-yl]-azetidin-1-yl}-(5-methyl-2-[1,2,3]triazol-2-yl-phenyl)-methanone], for which the negative-log IC50 (pIC50) in assay [1] is 6.53; in assay [2], 7.15.

With `COc1c(Cl)cccc1-c1nc([C@@H]2CCN2C(=O)c2ccc(Cl)cc2-n2nccn2)no1` [Example 119, {(S)-2-[5-(3-Chloro-2-methoxy-phenyl)-[1,2,4]oxadiazol-3-yl]-azetidin-1-yl}-(4-chloro-2-[1,2,3]triazol-2-yl-phenyl)-methanone], the pIC50 was 7.42 in assay [1] and 8.40 in assay [2].

Consider `CCOc1ncccc1-c1nnc([C@@H]2CCN2C(=O)c2ccc(C)cc2-n2nccn2)[nH]1` [Example 123, {(S)-2-[5-(2-Ethoxy-pyridin-3-yl)-4H-[1,2,4]triazol-3-yl]-azetidin-1-yl}-(4-methyl-2-[1,2,3]triazol-2-yl-phenyl)-methanone], for which the results for the pIC50 in assay [1] and in assay [2] were 5.69 and 6.50, respectively.

As to `Cc1cc(C(=O)N2CC[C@H]2c2noc(-c3cccc(Cl)c3C)n2)c(-n2nccn2)cc1C` [Example 102, {(S)-2-[5-(3-Chloro-2-methyl-phenyl)-[1,2,4]oxadiazol-3-yl]-azetidin-1-yl}-(4,5-dimethyl-2-[1,2,3]triazol-2-yl-phenyl)-methanone], the pIC50 in assay [1] was 7.39; in assay [2], 8.70.

On to `COc1cc(C(=O)N2CC[C@H]2c2noc(-c3ccccc3OC(F)(F)F)n2)c(-n2nccn2)cc1Cl` [Example 94, (4-Chloro-5-methoxy-2-[1,2,3]triazol-2-yl-phenyl)-{(S)-2-[5-(2-trifluoromethoxy-phenyl)-[1,2,4]oxadiazol-3-yl]-azetidin-1-yl}-methanone], for which the pIC50 in assay [1] was 6.49; in assay [2] it was 7.96.

Consider `COc1cc(C(=O)N2CC[C@H]2c2nnc(-c3ccccc3OC(F)(F)F)[nH]2)c(-n2nccn2)cc1Cl` [Example 131, (4-Chloro-5-methoxy-2-[1,2,3]triazol-2-yl-phenyl)-{(S)-2-[5-(2-trifluoromethoxy-phenyl)-4H-[1,2,4]triazol-3-yl]-azetidin-1-yl}-methanone], for which the values for the negative logarithm of the IC50 (pIC50) in assay [1] and in assay [2] were 6.30 and 8.30, respectively.

For `Cc1ccc(C(=O)N2CC[C@H]2c2nnc(-c3ccccc3)[nH]2)c(-n2nccn2)c1` [Example 121, (4-Methyl-2-[1,2,3]triazol-2-yl-phenyl)-[(S)-2-(5-phenyl-4H-[1,2,4]triazol-3-yl)-azetidin-1-yl]-methanone], the negative-log IC50 (pIC50) in assay [1] is 5.04; in assay [2], 6.49.

As to `Cc1ccc(-n2nccn2)c(C(=O)N2CC[C@H]2c2nc(-c3cccc(F)c3C)no2)c1` [Example 2, {(S)-2-[3-(3-Fluoro-2-methyl-phenyl)-[1,2,4]oxadiazol-5-yl]-azetidin-1-yl}-(5-methyl-2-[1,2,3]triazol-2-yl-phenyl)-methanone], the pIC50 in assay [1] is 6.15; in assay [2] it was 8.05.

As for `COc1cc(C(=O)N2CC[C@H]2c2noc(-c3cccc(Cl)c3C)n2)c(-n2nccn2)cc1Cl` [Example 104, (4-Chloro-5-methoxy-2-[1,2,3]triazol-2-yl-phenyl)-{(S)-2-[5-(3-chloro-2-methyl-phenyl)-[1,2,4]oxadiazol-3-yl]-azetidin-1-yl}-methanone], the pIC50 in assay [1] was 6.74; in assay [2], 8.70.

Take `Cc1c(Cl)cccc1-c1noc([C@@H]2CCN2C(=O)c2cc(C(F)(F)F)ccc2-n2nccn2)n1` [Example 66, {(S)-2-[3-(3-Chloro-2-methyl-phenyl)-[1,2,4]oxadiazol-5-yl]-azetidin-1-yl}-(2-[1,2,3]triazol-2-yl-5-trifluoromethyl-phenyl)-methanone]: the negative logarithm of the IC50 (pIC50) in assay [1] was 5.80; in assay [2], 6.41.

For `COc1cc(C(=O)N2CC[C@H]2c2noc(-c3cccc(Cl)c3C)n2)c(-c2ncccn2)cc1C` [Example 116, {(S)-2-[5-(3-Chloro-2-methyl-phenyl)-[1,2,4]oxadiazol-3-yl]-azetidin-1-yl}-(5-methoxy-4-methyl-2-pyrimidin-2-yl-phenyl)-methanone], the pIC50 in assay [1] is 6.25; in assay [2] it was 8.30.

Regarding `Cc1cccc(-c2oc(C)nc2C(=O)N2CC[C@H]2c2nc(-c3ccccc3OC(F)(F)F)no2)c1` [Example 52, (2-Methyl-5-m-tolyl-oxazol-4-yl)-{(S)-2-[3-(2-trifluoromethoxy-phenyl)-[1,2,4]oxadiazol-5-yl]-azetidin-1-yl}-methanone], the negative-log IC50 (pIC50) in assay [1] is 6.45; in assay [2] it was 6.51.

For `Cc1cccc(-c2noc([C@@H]3CCN3C(=O)c3cc(C)ccc3-n3nccn3)n2)c1` [Example 13, (5-Methyl-2-[1,2,3]triazol-2-yl-phenyl)-[(S)-2-(3-m-tolyl-[1,2,4]oxadiazol-5-yl)-azetidin-1-yl]-methanone], the results for the pIC50 in assay [1] and in assay [2] were 5.94 and 7.40, respectively.

As to `COc1c(Cl)cccc1-c1nc([C@@H]2CCN2C(=O)c2cc(C)ccc2-n2nccn2)no1` [Example 109, {(S)-2-[5-(3-Chloro-2-methoxy-phenyl)-[1,2,4]oxadiazol-3-yl]-azetidin-1-yl}-(5-methyl-2-[1,2,3]triazol-2-yl-phenyl)-methanone], the pIC50 is 6.88 in assay [1] and 8.52 in assay [2].

With `Cc1ccc(C(=O)N2CC[C@H]2c2nc(-c3ccccc3OC(F)(F)F)no2)c(-n2nccn2)c1` [Example 79, (4-Methyl-2-[1,2,3]triazol-2-yl-phenyl)-{(S)-2-[3-(2-trifluoromethoxy-phenyl)-[1,2,4]oxadiazol-5-yl]-azetidin-1-yl}-methanone], the pIC50 is 6.47 in assay [1] and 7.77 in assay [2].

As to `Cc1onc(-c2ccccc2Cl)c1C(=O)N1CC[C@H]1c1nc(-c2cccc(Cl)c2C)no1` [Example 72, {(S)-2-[3-(3-Chloro-2-methyl-phenyl)-[1,2,4]oxadiazol-5-yl]-azetidin-1-yl}-[3-(2-chloro-phenyl)-5-methyl-isoxazol-4-yl]-methanone], the pIC50 in assay [1] was 5.85; in assay [2], 6.18.
